Among the data in US8722663B2, “Di-substituted pyridine derivatives as anticancers” (Otsuka Pharmaceutical Co., Ltd., priority 2010, dated 2014) are IC50 and melting point values, retold here.

Structures can show the parent of a compound that is named as a salt.

For orientation: IC50 means the concentration that inhibits the measured activity by half. The low end stands for higher potency, the high end for lower potency. The term melting point denotes the temperature, or range, at which the solid turns liquid.

Series [1] relates to human prostate (adenocarcinoma) cell line (VcaP). Briefly: Growth inhibition of VcaP cells, WST-8 assay. In kind it is cell-based. Conditions: 120 h, 5 days with test compound. The protocol: (§1) The growth inhibition on a bicalutamide resistant human prostate cancer cell line established from LNCaP.FGC (LNCaP-Bic) (Hobisch A, et al. Prostate. 2006; 66(4):413-20.) was determined by a WST-8 assay according to the method of Singh A K, et al. (Cancer Lett. 1996 Oct. 1; 107(1): 109-15.). In this method, LNCaP-Bic cells were seeded in RPMI 1640 medium containing 10% fetal bovine serum in a 96-well microplate and incubated at 37° C. for 24 hours in the presence of 5% carbon dioxide. Then, the test compound was added and the cells were incubated for another 5 days. After incubation, a 15-μL volume of WST-8 (2-(2-methoxy-4-nitrophenyl)-3-(4-nitrophenyl)-5-(2,4-[…])-2H-tetrazolium, monosodium salt) was added. After the incubation for the time, the color reaction was stopped by adding 15 μL of 1% SDS (sodium dodecyl sulfate) solution and the optical density was determined at the measurement wavelength of 450 nm and the reference wavelength of 630 nm, and the difference was calculated. The cell growth activity in each well was defined as the value determined by subtracting the OD in the control well not containing cells (the difference in absorbance between 450 nm and 630 nm) from that in the test well.
(§2) The 50% inhibitory concentration (IC50 (nM)) of the test compound was determined by comparing the cell growth activity in the well containing the test compound with that of the control not containing the test compound.
The growth inhibition on a human prostate (adenocarcinoma) cell line (VcaP) (Korenchuk S, et al. In Vivo. 2001; 15(2):163-8.) was also determined by the above method.
(Formazan colour is commonly taken as a measure of viable cells.)

The test system of series [2] is human prostate (carcinoma) cell line (DU 145). Briefly: Growth inhibition of DU 145 cells, WST-8 assay. In kind it is cell-based. Conditions: 120 h, 5 days with test compound. The protocol: as §1, §2
The growth inhibition on a human prostate (carcinoma) cell line (DU 145) (van Bokhoven A, et al. Prostate. 2003; 57(3):205-25.) was also determined by the above method.

Series [3] has as its system bicalutamide resistant human prostate cancer cell line established from LNCaP.FGC (LNCaP-Bic). Briefly: Growth inhibition of LNCaP-Bic cells, WST-8 assay. In kind it is cell-based. As to conditions: 120 h, 5 days with test compound. The method, then:
as §1, §2

The test system of series [4] is human prostate (carcinoma) cell line (LNCaP.FGC). The experiment in a line: Growth inhibition of LNCaP.FGC cells, WST-8 assay. It is filed as cell-based. As to conditions: 120 h, 5 days with test compound. The method, then:
as §1, §2
The growth inhibition on a human prostate (carcinoma) cell line (LNCaP.FGC) (van Bokhoven A, et al. Prostate. 2003; 57(3):205-25.) was also determined by the above method.

In series [5] the test system is human prostate (adenocarcinoma) cell line (PC-3). Briefly: Growth inhibition of PC-3 cells, WST-8 assay. It is filed as cell-based. As to conditions: 120 h, 5 days with test compound. The protocol:
as §1, §2
The growth inhibition on a human prostate (adenocarcinoma) cell line (PC-3) (van Bokhoven A, et al. Prostate. 2003; 57(3):205-25.) was also determined by the above method.

In turn, `Cc1cc(/C=C/C(=O)N2CCN(Cc3ccc(CCOc4ccc(C(F)(F)F)cn4)cc3)CC2)cc(Cl)c1Oc1ccc(OCc2ccc(C#N)cc2)cn1.Cl` [Example 613, 4-{[(6-{2-Chloro-6-methyl-4-[(E)-3-oxo-3-{4-[4-(2-{[5-(trifluoromethyl)pyridin-2-yl]oxy}-ethyl)benzyl]piperazin-1-yl}prop-1-en-1-yl]phenoxy}pyridin-3-yl)oxy]methyl}benzonitrile hydrochloride] displayed a melting point of 193.7 to 194.2 °C. For the same compound, the IC50 in series [1] is less than 10 nM. For the same compound, in series [2], the IC50 was less than 10 nM. The half-maximal inhibitory concentration (IC50) in series [3] is less than 10 nM. Besides, the concentration for half-maximal inhibition (IC50) in series [4] was less than 10 nM. The compound further displayed an IC50 in series [5] of less than 10 nM.

Compound `COc1ccc(COc2ccc(Oc3c(C)cc(/C=C/C(=O)N4CCN(Cc5ccc(/C=C/COc6ccc(C)cc6)cc5)CC4)cc3C)nc2)cc1` [Example 1, (2E)-3-[4-({5-[(4-methoxybenzyl)oxy]pyridin-2-yl}oxy)-3,5-dimethylphenyl]-1-(4-{4-[(1E)-3-(4-methylphenoxy)prop-1-en-1-yl]benzyl}piperazin-1-yl)prop-2-en-1-one] returned a melting point of 130 to 132 °C. In series [1], the IC50 is less than 10 nM. The compound also displayed an IC50 in series [2] of less than 10 nM. The compound also gave an IC50 in series [3] of less than 10 nM. The compound further had an IC50 in series [4] of less than 10 nM. The IC50 in series [5] is less than 10 nM.

`Cc1cc(/C=C/C(=O)N2CCN(Cc3ccc(/C=C/COc4ccc(Br)cn4)cc3)CC2)cc(Cl)c1Oc1ccc(OCc2ccc(C#N)cc2)cn1.Cl` [Example 657, 4-({[6-(4-{(1E)-3-[4-(4-{(1E)-3-[(5-Bromopyridin-2-yl)oxy]prop-1-en-1-yl}benzyl)piperazin-1-yl]-3-oxoprop-1-en-1-yl}-2-chloro-6-methylphenoxy)pyridin-3-yl]oxy}methyl)benzonitrile hydrochloride] came in with a melting point of 145 to 145.8 °C. The compound further returned an IC50 in series [1] of less than 10 nM. In addition, in series [2], the IC50 was less than 10 nM. Further, the half-maximal inhibitory concentration (IC50) in series [3] was less than 10 nM. The compound also yielded a half-maximal inhibitory concentration (IC50) in series [4] of less than 10 nM. Further, in series [5], the IC50 was less than 10 nM.

As to `Cc1ccc(OCCc2ccc(CN3CCN(C(=O)/C=C/c4cc(C)c(Oc5ccc(OCc6cscn6)cn5)c(C)c4)CC3)cc2)cc1` [Example 601, (E)-3-(3,5-Dimethyl-4-{[5-(1,3-thiazol-4-ylmethoxy)pyridin-2-yl]oxy}phenyl)-1-(4-{4-[2-(4-methylphenoxy)ethyl]benzyl}piperazin-1-yl)prop-2-en-1-one hydrochloride], the IC50 in series [1], in series [2], in series [3], in series [4] and in series [5] was less than 10 nM throughout.

`COc1ccc(NCCc2ccc(CN3CCN(C(=O)/C=C/c4ccc(Oc5ccc(OCc6ccc(C#N)cc6)cn5)c(Cl)c4)CC3)cc2)cc1.Cl.Cl` [Example 669, 4-({[6-(2-Chloro-4-{(E)-3-[4-(4-{2-[(4-methoxyphenyl)amino]ethyl}benzyl)piperazin-1-yl]-3-oxoprop-1-en-1-yl}phenoxy)pyridin-3-yl]oxy}methyl)benzonitrile dihydrochloride] came in with a melting point of 219.5 to 222.3 °C. For the same compound, in series [1], the IC50 is less than 10 nM. The compound also came in with an IC50 in series [2] of less than 10 nM. For the same compound, the IC50 in series [3] is less than 10 nM. In series [4], the IC50 was less than 10 nM. Also, in series [5], the IC50 was less than 10 nM.

With `CC(C)c1ccc(OCCc2ccc(CN3CCN(C(=O)/C=C/c4ccc(Oc5ccc(OCc6ccc(C#N)cc6)cn5)c(F)c4)CC3)cc2)cc1` [Example 593, 4-({[6-(2-Fluoro-4-{(E)-3-oxo-3-[4-(4-{2-[4-(propan-2-yl)phenoxy]ethyl}benzyl)piperazin-1-yl]prop-1-en-1-yl}phenoxy)pyridin-3-yl]oxy}methyl)benzonitrile hydrochloride], the IC50 in series [1], in series [2], in series [3], in series [4] and in series [5] was less than 10 nM throughout.

For `Cc1ccc(OCCc2ccc(CN3CCN(C(=O)/C=C/c4cc(C)c(Oc5ccc(OCc6ccccc6F)cn5)c(Cl)c4)CC3)cc2)cc1` [Example 451, (E)-3-[3-Chloro-4-({5-[(2-fluorobenzyl)oxy]pyridin-2-yl}oxy)-5-methylphenyl]-1-(4-{4-[2-(4-methylphenoxy)ethyl]benzyl}piperazin-1-yl)prop-2-en-1-one hydrochloride], the IC50 in series [1], in series [2], in series [3], in series [4] and in series [5] was less than 10 nM each time.

Regarding `Cc1cc(/C=C/C(=O)N2CCN(Cc3ccc(CCOc4ccc(C(C)C)cc4)cc3)CC2)ccc1Oc1ccc(OCc2ccccc2Cl)cn1.Cl` [Example 507, (E)-3-[4-({5-[(2-Chlorobenzyl)oxy]pyridin-2-yl}oxy)-3-methylphenyl]-1-[4-(4-{2-[4-(propan-2-yl)phenoxy]ethyl}benzyl)piperazin-1-yl]prop-2-en-1-one hydrochloride], the melting point lay in the range of 178.2 to 178.9 °C. The same compound came in with an IC50 in series [1] of less than 10 nM. In series [2], this compound registered an IC50 of less than 10 nM. For the same compound, in series [3], the IC50 was less than 10 nM. In series [4], this compound returned an IC50 of less than 10 nM. The compound also yielded an IC50 in series [5] of less than 10 nM.

`Cc1cc(/C=C/C(=O)N2CCN(Cc3ccc(CCOc4ccc(F)cc4)cc3)CC2)cc(Cl)c1Oc1ccc(OCc2ccccc2F)cn1.Cl` [Example 447, (E)-3-[3-Chloro-4-({5-[(2-fluorobenzyl)oxy]pyridin-2-yl}oxy)-5-methylphenyl]-1-(4-{4-[2-(4-fluorophenoxy)ethyl]benzyl}piperazin-1-yl)prop-2-en-1-one hydrochloride] returned a melting point of 224 to 224.5 °C. The same compound yielded an IC50 in series [1] of less than 10 nM. The IC50 in series [2] is less than 10 nM. The compound further had a concentration for half-maximal inhibition (IC50) in series [3] of less than 10 nM. The IC50 in series [4] was less than 10 nM. Besides, the IC50 in series [5] was less than 10 nM.

For the compound `COc1ccc(COc2ccc(Oc3c(C)cc(/C=C/C(=O)N4CCN(Cc5ccc(CCOc6ccc(C)cc6)cc5C)CC4)cc3C)nc2)cc1` [Example 611, (E)-3-[4-({5-[(4-Methoxybenzyl)oxy]pyridin-2-yl}oxy)-3,5-dimethylphenyl]-1-(4-{2-methyl-4-[2-(4-methylphenoxy)ethyl]benzyl}piperazin-1-yl)prop-2-en-1-one hydrochloride], the IC50 in series [1], in series [2], in series [3], in series [4] and in series [5] was less than 10 nM throughout.

As to `Cc1ccc(COc2ccc(Oc3c(C)cc(/C=C/C(=O)N4CCN(Cc5ccc(CCOc6ccc(F)cc6)cc5)[C@@H](C)C4)cc3Cl)nc2)cc1` [Example 392, (E)-3-[3-chloro-5-methyl-4-({5-[(4-methylbenzyl)oxy]pyridin-2-yl}oxy)phenyl]-1-[(3S)-4-{4-[2-(4-fluorophenoxy)ethyl]benzyl}-3-methylpiperazin-1-yl]prop-2-en-1-one], the IC50 in series [1], in series [2], in series [3], in series [4] and in series [5] was less than 10 nM throughout.

Regarding `Cc1cc(/C=C/C(=O)N2CCN(Cc3ccc(CCOc4ccc(Cl)cc4)cc3)CC2)cc(Cl)c1Oc1ccc(OCc2ccccc2Cl)cn1` [Example 466, (E)-3-[3-Chloro-4-({5-[(2-chlorobenzyl)oxy]pyridin-2-yl}oxy)-5-methylphenyl]-1-(4-{4-[2-(4-chlorophenoxy)ethyl]benzyl}piperazin-1-yl)prop-2-en-1-one hydrochloride], the IC50 in series [1], in series [2], in series [3], in series [4] and in series [5] was less than 10 nM each time.

Turning to `Cc1ccc(OCCc2ccc(CN3CCN(C(=O)/C=C/c4cc(C)c(Oc5ccc(OCc6ccccc6Cl)cn5)c(Cl)c4)CC3)cc2)cc1` [Example 452, (E)-3-[3-Chloro-4-({5-[(2-chlorobenzyl)oxy]pyridin-2-yl}oxy)-5-methylphenyl]-1-(4-{4-[2-(4-methylphenoxy)ethyl]benzyl}piperazin-1-yl)prop-2-en-1-one hydrochloride], the IC50 in series [1], in series [2], in series [3], in series [4] and in series [5] was less than 10 nM in each case.
